Measured values published in ChEMBL document CHEMBL1127662, “3-Alkoxybenzo[b]thiophene-2-carboxamides as inhibitors of neutrophil-endothelial cell adhesion” (J Med Chem, 1994).

What was measured:
HUVEC [1] = assay: (§1) Tested for adhesion of neutrophils to human umbilical vein endothelial cell at the dose of 100 uM; type: functional
HUVEC [2] = assay: as §1; type: functional, cell-based

| SMILES | inhibition at 100 µM (HUVEC [1]) [%] | further results |
| --- | --- | --- |
| COc1ccc2sc(C(N)=O)c(Oc3ccccc3)c2c1 | 59 |  |
| CC(C)Oc1c(C(N)=O)sc2ccc(OCc3ccccc3)cc12 | < 4 |  |
| COc1ccc2c(c1)C(OC(C)C)=C(C(N)=O)S2(=O)=O |  | Inhibition (HUVEC [2]): < 4% |
| CC(C)Oc1c(C(N)=O)sc2ccc(N)cc12 | 49 |  |
| COc1ccc2c(OC(C)C)c(C(N)=O)sc2c1 | 24 |  |
| COc1ccc2sc(C(N)=O)c(OCc3ccccc3)c2c1 | 57 |  |
| COc1cccc2c(OC(C)C)c(C(N)=O)sc12 | 35 |  |
| COc1ccc2sc(C(N)=O)c(OC(C)(C)C)c2c1 | 97 |  |
| CCNC(=O)c1sc2ccc(OC)cc2c1OC(C)C | 64 |  |
| COc1ccc2sc(C(N)=O)c(OC)c2c1 | 60 |  |
| COc1ccc2c(c1)c(OC(C)C)c(C(N)=O)[s+]2[O-] (stereo not drawn) |  | IC50 (HUVEC [2]): 8.7 µM |
| CC(C)Oc1c(C(N)=O)sc2ccc(O)cc12 |  | IC50 (HUVEC [2]): 6.4 µM |
| CC(C)Oc1c(C(N)=O)sc2ccccc12 | 60 |  |
| Cc1ccc2sc(C(N)=O)c(OC(C)C)c2c1 | 61 |  |
| CNC(=O)c1sc2ccc(OC)cc2c1OC(C)C |  | IC50 (HUVEC [2]): 15 µM |
| CC(C)Oc1c(C(N)=O)sc2ccc(Cl)cc12 | 72 |  |
| COc1ccc2sc(C(=O)Nc3ccccc3)c(OC(C)C)c2c1 | 12 |  |
| CC(C)Oc1c(C(N)=O)sc2ccc([N+](=O)[O-])cc12 |  | Inhibition (HUVEC [2]): 40% |
